Assay [1] deals with A431 cells (human epidermoid carcinoma). Put plainly: In vitro tumor cell proliferation assay (Cell Titer-Glo luminescent cell viability), A431. The format is cell-based. To be noted: A-431, 72 h, 72 hours of drug exposure, ATP luminescence readout, read-out: IC50, anti-proliferative activity (inhibition of cell proliferation). The method in brief: (§1)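 Seeding density 2.5×10^3 cells/well; 72 h drug exposure at 37° C; endpoint CellTiter-Glo luminescence, reported as IC50.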

Assay [2] has as its system BT474 (human breast carcinoma). The assay is described as follows: In vitro tumor cell proliferation assay (Cell Titer-Glo luminescent cell viability), BT474. The assay is classed as cell-based. To be noted: BT-474, 72 h, BT474 cells, 72 hours of drug exposure, ATP luminescence readout, read-out: IC50, anti-proliferative activity (inhibition of cell proliferation). A digest of the protocol:
as §1

The record followed here is patent US8207172B2 (Bayer Intellectual Property GmbH, priority 2004, dated 2012).

Molecules are shown by their SMILES. Where only a bound is given, the exact number is not on record here.

On to `CS(=O)(=O)CCNCCn1cc2c(n1)CCc1c-2sc2ncnc(Nc3ccc(OCc4ccccn4)c(Cl)c3)c12` [Example 105, N-[3-chloro-4-(pyridin-2-ylmethoxy)phenyl]-2-(2-{[2-(methylsulfonyl)ethyl]amino}ethyl)-4,5-dihydro-2H-pyrimido[5′,4′:4,5]thieno[2,3-e]indazol-6-amine], for which the IC50 was not above 5 µM in assay [1] and not above 1 µM in assay [2].

Turning to `Clc1cc(Nc2ncnc3sc4c(c23)CCc2nn(CCN3CCOCC3)cc2-4)ccc1OCc1ccccn1` [Example 106, N-[3-chloro-4-(pyridin-2-ylmethoxy)phenyl]-2-(2-morpholin-4-ylethyl)-4,5-dihydro-2H-pyrimido[5′,4′:4,5]thieno[2,3-e]indazol-6-amine], the figures for the IC50 in assay [1] and in assay [2] were not above 50 µM and not above 1 µM, respectively.

`CNCCn1cc2c(n1)CCc1c-2sc2ncnc(Nc3ccc(OCc4ccccn4)c(Cl)c3)c12` [Example 107, N-[3-chloro-4-(pyridin-2-ylmethoxy)phenyl]-2-[2-(methylamino)ethyl]-4,5-dihydro-2H-pyrimido[5′,4′:4,5]thieno[2,3-e]indazol-6-amine]: the figures for the IC50 in assay [1] and in assay [2] were not above 5 µM and not above 1 µM, respectively.

Regarding `CCNCCn1cc2c(n1)CCc1c-2sc2ncnc(Nc3ccc(OCc4ccccn4)c(Cl)c3)c12` [Example 108, N-[3-chloro-4-(pyridin-2-ylmethoxy)phenyl]-2-[2-(ethylamino)ethyl]-4,5-dihydro-2H-pyrimido[5′,4′:4,5]thieno[2,3-e]indazol-6-amine], the IC50 in assay [1] was not above 50 µM; in assay [2] it was not above 1 µM.

For the compound `Clc1cc(Nc2ncnc3sc4c(c23)CCc2n[nH]cc2-4)ccc1OCc1ccccn1` [Example 109, N-[3-chloro-4-(pyridin-2-ylmethoxy)phenyl]-4,5-dihydro-2H-pyrimido[5′,4′:4,5]thieno[2,3-e]indazol-6-amine], the IC50 in assay [1] was not above 50 µM; in assay [2] it was not above 1 µM.

`Clc1cc(Nc2ncnc3sc4c(c23)CCc2c-4cnn2CCBr)ccc1OCc1ccccn1` [Example 110, 3-(2-bromoethyl)-N-[3-chloro-4-(pyridin-2-ylmethoxy)phenyl]-4,5-dihydro-3H-pyrimido[5′,4′:4,5]thieno[2,3-e]indazol-6-amine]: the IC50 in assay [1] is not above 5 µM; in assay [2], not above 1 µM.

On to `Clc1cc(Nc2ncnc3sc4c(c23)CCc2c-4cnn2CCN2CCOCC2)ccc1OCc1ccccn1` [Example 111, N-[3-chloro-4-(pyridin-2-ylmethoxy)phenyl]-3-(2-morpholin-4-ylethyl)-4,5-dihydro-3H-pyrimido[5′,4′:4,5]thieno[2,3-e]indazol-6-amine], for which the IC50 is not above 50 µM in assay [1] and not above 1 µM in assay [2].

Consider `CN1CCN(CCn2ncc3c2CCc2c-3sc3ncnc(Nc4ccc(OCc5ccccn5)c(Cl)c4)c23)CC1` [Example 112, N-[3-chloro-4-(pyridin-2-ylmethoxy)phenyl]-3-[2-(4-methylpiperazin-1-yl)ethyl]-4,5-dihydro-3H-pyrimido[5′,4′:4,5]thieno[2,3-e]indazol-6-amine], for which the results for the IC50 in assay [1] and in assay [2] were not above 5 µM and not above 1 µM, respectively.

Consider `COCCNCCn1ncc2c1CCc1c-2sc2ncnc(Nc3ccc(OCc4ccccn4)c(Cl)c3)c12` [Example 113, N-[3-chloro-4-(pyridin-2-ylmethoxy)phenyl]-3-{2-[(2-methoxyethyl)amino]ethyl}-4,5-dihydro-3H-pyrimido[5′,4′:4,5]thieno[2,3-e]indazol-6-amine], for which the IC50 is not above 50 µM in assay [1] and not above 1 µM in assay [2].

For `CS(=O)(=O)CCNCCn1ncc2c1CCc1c-2sc2ncnc(Nc3ccc(OCc4ccccn4)c(Cl)c3)c12` [Example 114, N-[3-chloro-4-(pyridin-2-ylmethoxy)phenyl]-3-(2-{[2-(methylsulfonyl)ethyl]amino}ethyl)-4,5-dihydro-3H-pyrimido[5′,4′:4,5]thieno[2,3-e]indazol-6-amine], the IC50 in assay [1] was not above 5 µM; in assay [2] it was not above 1 µM.

In the case of `Cc1cccc(COc2ccc(Nc3ncnc4sc5c(c34)CCc3nn(CCO)cc3-5)cc2Cl)n1` [Example 115], the IC50 in assay [1] is not above 50 µM; in assay [2], not above 1 µM.

As to `Cc1cccc(COc2ccc(Nc3ncnc4sc5c(c34)CCc3nn(CCOS(C)(=O)=O)cc3-5)cc2Cl)n1` [Example 116, 2-[6-({3-chloro-4-[(6-methylpyridin-2-yl)methoxy]phenyl}amino)-4,5-dihydro-2H-pyrimido[5′,4′:4,5]thieno[2,3-e]indazol-2-yl]ethyl methanesulfonate], the values for the IC50 in assay [1] and in assay [2] were not above 50 µM and not above 5 µM, respectively.

Turning to `Cc1cccc(COc2ccc(Nc3ncnc4sc5c(c34)CCc3nn(CCN4CCN(C)CC4)cc3-5)cc2Cl)n1` [Example 117, N-{3-chloro-4-[(6-methylpyridin-2-yl)methoxy]phenyl}-2-[2-(4-methylpiperazin-1-yl)ethyl]-4,5-dihydro-2H-pyrimido[5′,4′:4,5]thieno[2,3-e]indazol 6-amine], the IC50 in assay [1] is not above 50 µM; in assay [2], not above 5 µM.

Turning to `CCN1CCN(CCn2cc3c(n2)CCc2c-3sc3ncnc(Nc4ccc(OCc5cccc(C)n5)c(Cl)c4)c23)CC1` [Example 118, N-{3-chloro-4-[(6-methylpyridin-2-yl)methoxy]phenyl}-2-[2-(4-ethylpiperazin-1-yl)ethyl]-4,5-dihydro-2H-pyrimido[5′,4′:4,5]thieno[2,3-e]indazol-6-amine], the values for the IC50 in assay [1] and in assay [2] were not above 50 µM and not above 5 µM, respectively.

As for `Cc1cccc(COc2ccc(Nc3ncnc4sc5c(c34)CCc3nn(CCN4CCOCC4)cc3-5)cc2Cl)n1` [Example 119, N-{3-chloro-4-[(6-methylpyridin-2-yl)methoxy]phenyl}-2-(2-morpholin-4-ylethyl)-4,5-dihydro-2H-pyrimido[5′,4′:4,5]thieno[2,3-e]indazol-6-amine], the IC50 was not above 50 µM in assay [1] and not above 5 µM in assay [2].

In the case of `Cc1cccc(COc2ccc(Nc3ncnc4sc5c(c34)CCc3n[nH]cc3-5)cc2Cl)n1` [Example 120, N-{3-chloro-4-[(6-methylpyridin-2-yl)methoxy]phenyl}-4,5-dihydro-2H-pyrimido[5′,4′:4,5]thieno[2,3-e]indazol-6-amine], the IC50 in assay [1] and in assay [2] was not above 5 µM in each case.

Regarding `CCN1CCN(CCn2cc3c(n2)CCc2c-3sc3ncnc(Nc4ccc(OCc5cccc(F)c5)c(Cl)c4)c23)CC1` [Example 121, N-{3-chloro-4-[(3-fluorobenzyl)oxy]phenyl}-2-[2-(4-ethylpiperazin-1-yl)ethyl]-4,5-dihydro-2H-pyrimido[5′,4′:4,5]thieno[2,3-e]indazol-6-amine], the IC50 is not above 5 µM in assay [1] and not above 1 µM in assay [2].

In the case of `COCCN1CCN(CCn2cc3c(n2)CCc2c-3sc3ncnc(Nc4ccc(OCc5cccc(F)c5)c(Cl)c4)c23)CC1` [Example 122, N-{3-chloro-4-[(3-fluorobenzyl)oxy]phenyl}-2-{2-[4-(2-methoxyethyl)piperazin-1-yl]ethyl}-4,5-dihydro-2H-pyrimido[5′,4′:4,5]thieno[2,3-e]indazol-6-amine], the IC50 in assay [1] was not above 5 µM; in assay [2], not above 1 µM.

For the compound `CC(C)(C)[Si](C)(C)OCCn1cc2c(n1)CCc1c-2sc2ncnc(Nc3ccc(OCc4ccccc4)c(Cl)c3)c12` [Example 123, N-[4-(benzyloxy)-3-chlorophenyl]-2-(2-{[tert-butyl(dimethyl)silyl]oxy}ethyl)-4,5-dihydro-2H-pyrimido[5′,4′:4,5]thieno[2,3-e]indazol-6-amine], the results for the IC50 in assay [1] and in assay [2] were not above 50 µM and not above 5 µM, respectively.
